In patent US4870002A, “Method of prevention of oxidative injury to cells” (priority 1985, dated 1989):
Read-outs that look alike come from different tables or passages of the source.

Experiments:
porcine RBCs = assay: Nonspecific binding of Lu-BSA to porcine RBCs (base-activated chemiluminescence); format: cell-based, pig
Protocol: Blood was collected from Landrace-Duroc swine from a closed herd. Pigs from this herd had previously expressed episodes of porcine stress syndrome (malignant hyperthermia) following halothane anesthesia. The blood was collected into acidic citrated dextrose solution in standard blood bags. The blood was diluted 1:10 in phosphate (0.1M) buffered saline (PBS), pH 7.4, in 10 ml aliquots, centrifuged in a clinical centrifuge, and the erythrocytes were resuspended in fresh PBS. The cells were stored at 4° C. until used in the various assays. The post-collection chronological age of the RBCs used for a particular assay is noted in the results for each assay. The cells were counted in an automated cell counter (Coulter ZBI, Coulter Electronics, Inc., Hialeah, Fla. 33010). Nonspecific binding of Lu-BSA to porcine RBCs was measured following treatment with hydrogen peroxide, pyruvate, and/or 3-amino-L-tyrosine at 4°, 37°, or 45° C. The exposure times for those agents were 15 min, 30 min, or 72 hours. The reagents were removed by centrifugation. Three binding protocols were followed: (1) 0.25 ml of 1:20 RBCs (19 days post collection) were incubated with 0.25 ml of 1 mg/ml Lu-BSA in PBS, pH 6.9, for 30 min at 37° C. and washed (Table 1); (2) 0.05 ml of packed RBCs (less than 24 hours post collection) were resuspended in 0.2 ml of the Lu-BSA solution and incubated overnight at 4° C. […] The cells in all three protocols were washed once in PBS, pH 7.4, and resuspended in PBS to final dilutions of 1:20 for (1) and 1:30 for (2) and (3). Following this preparation, 100 μl of each cell suspension were added to 500 μl of PBS, pH 7.4, in a scintillation vial. The vial was placed in the photometer and the solution was activated by the addition of 100 μl 0.1N NaOH. The settings for the photometer were as previously described for the Con A-Lu-BSA.

[1] = test system: Con A-Lu-BSA labeled pig RBCs; assay: Chemiluminescence of Con A-Lu-BSA labeled pig RBCs with exogenous hydrogen peroxide; format: cell-based; details: 1.43 mM; for activity at 1430 µM: Sus scrofa, Erythrocyte, read-out: Percent control
Protocol: The luminol-bovine serum albumin (Lu-BSA) complex was made by mixing 2 mg luminol (5-amino-2, 3-dihydrophthalazine-1,4-dione), 0.2 ml of 2 mg BSA/ml PBS (pH 6.9), and 1.6 ml of PBS, pH 6.9. The preparation was then passed through a 0.22 μm nitrocellulose filter to remove insoluble luminol. Next, 0.2 ml of 2 mg Con A/ml of PBS, pH 6.9, was added to the filtrate. After gentle mixing, 10 μl of 25% glutaraldehyde were added. The solution was incubated in the refrigerator for 1 hour. To stop the conjugation, 100 mg of glycine was added to the solution. The solution was then pressed through a 48 ml column of dextran gel filtration beads equilibrated with PBS, pH 6.9. The gel exclusion size was greater than 5000 for globular molecules. The fractions were collected and tested for luminescent labeling activity.
One ml of supernatant of each 10 ml aliquot of 1:20 diluted RBCs was replaced with 1 ml of Con A-Lu-BSA solution as previously described. The preparation was incubated for 15 min. at 37° C. in a water-jacketedcell culture incubator. The cells were then pelleted in a clinical centrifuge, resuspended in PBS, and washed in the same manner two additional times. The washed cells were maintained at 4° C. until used the same day of preparation.
Following exposure to chemical or physical stressors, 100 μl of the RBC suspension was added to 500 μl of PBS, pH 7.4, containing 0.3% hydrogen peroxide, in a scintillation vial. To activate the sample, 100 μl of 0.1N NaOH were added to the vial in place in an ATP photometer (Integrating ATP Photometer Model 3000, Science Applications, San Diego, California 92121) The photometer was set to a dark count of 1 count/30 second at a sensitivity of 600 at room temperature (approximately 23° C.). All counts followed a 5 second delay period to allow for stabilization of the photomultiplier. The counts are reported as counts/30 sec.
All essays were run at room temperature. The post-collection age of those cells was 11-18 days and the cells were used the day of labeling. […] Pyruvate (1.43 mM), an autoxidizable substrate, doubled the CL of labeled cells.

pig RBCs = assay: Thermal fragility / hemolysis of RBCs (410 nm absorbance of supernatant); format: cell-based; details: for thermal hemolysis, 410 nm optical absorbance, Hot air / thermal hemolysis, 410 nm optical absorbance, Microwave exposed / 410 nm optical absorbance of 1:2 diluted supernatant, Hot air / 410 nm optical absorbance of 1:2 diluted supernatant, Microwave exposed: 43° C. (10 min); for thermal hemolysis, 410 nm optical absorbance, Hot air / thermal hemolysis, 410 nm optical absorbance, Microwave exposed: Con A-Lu-BSA labeled RBCs 11-14 days post collection; for 410 nm optical absorbance of 1:2 diluted supernatant, 4° C. / 410 nm optical absorbance of 1:2 diluted supernatant, Hot air / 410 nm optical absorbance of 1:2 diluted supernatant, Microwave exposed: RBCs 6 days post collection
Protocol: Blood was collected from Landrace-Duroc swine from a closed herd. Pigs from this herd had previously expressed episodes of porcine stress syndrome (malignant hyperthermia) following halothane anesthesia. The blood was collected into acidic citrated dextrose solution in standard blood bags. The blood was diluted 1:10 in phosphate (0.1M) buffered saline (PBS), pH 7.4, in 10 ml aliquots, centrifuged in a clinical centrifuge, and the erythrocytes were resuspended in fresh PBS. The cells were stored at 4° C. until used in the various assays. The post-collection chronological age of the RBCs used for a particular assay is noted in the results for each assay. The cells were counted in an automated cell counter (Coulter ZBI, Coulter Electronics, Inc., Hialeah, Fla. 33010).
Red blood cells were heated in 1 or 1.5 ml aliquots of PBS pH 7.4 with or without additional reagents in cellulose nitrate or polypropylene centrifuge tubes. Two concentrations of cells were used as indicated in the results. Heating was accomplished by three methods: microwave radiation, hot air, or water bath heating. The microwave device was a circularly polarized waveguide powered by a 1-kw S-band (microwave) amplifier (Model 10704,MCL, Inc., La Grange, Ill.). The heating of the sample at a specific absorption rate (SAR) of 91±4 W/kg (continuous wave (CW), 2450MHz) was offset by an air-cooling system that maintained a constant temperature. This system has been previously described in greater detail in Kiel, J. L. and D. N. Erwin, "Microwave and thermal interactions with oxidative hemolysis", 16 Physiol. Chem. Phys. Med. NMR, 317-323 (1984), which reference is hereby incorporated in its entirety by this specific reference thereto. […] The temperature was held within ±0.2° C. by this system. In the absence of microwave radiation, the temperature was held constant by hot air alone. The microwave/hot air system was brought to 37° C. for 15 min. prior to raising the temperature to 43° C. by microwaves or hot hot air. The water bath heating held the temperature within ±0.5° C. Heating times were 10, 15, or 30 min. The temperatures examined were 37°, 43°, 45°, or 48°.
Hemoglobin released into the supernatants of the heated cells were determined by the method described in the above-incorporated reference of Kiel and Erwin (1984). In brief, the supernatants were collected following centrifugation in a clinical centrifuge, diluted 1:2 in PBS, pH 7.4, and the optical absorbances at 410 nm were determined in a dual beam spectrophotometer. Pyruvate, lactate, inosine, hydrogen peroxide, mimosine, and/or 3-amino-L-tyrosine were added to the samples as indicated in Tables 1-3 and 9-12. All reagents were diluted in PBS and the final volumes of the samples were constant.

[2] = test system: Con A-Lu-BSA labeled pig RBCs; assay: Chemiluminescence of Con A-Lu-BSA labeled pig RBCs with exogenous hydrogen peroxide; format: cell-based; details: Sus scrofa, Erythrocyte, 1.43 mM, no cells; read-out: Percent control
[3] = test system: 20-methylcholanthrene induced tumors; details: cited from earlier work
[4] = in vivo; cited from earlier work
[5] = labeled RBCs 11-18 days post collection, room temperature

| Compound | effect on CL of labeled cells, in words [1] | CL (30 sec) [1, 5] | activity at 1430 µM [1] [%] | thermal hemolysis, 410 nm optical absorbance, Hot air (pig RBCs; 10 mM) | thermal hemolysis, 410 nm optical absorbance, Microwave exposed (pig RBCs; 10 mM) | 410 nm optical absorbance of 1:2 diluted supernatant, 4° C. (pig RBCs; 10 mM) | 410 nm optical absorbance of 1:2 diluted supernatant, Hot air (pig RBCs; 10 mM) | 410 nm optical absorbance of 1:2 diluted supernatant, Microwave exposed (pig RBCs; 10 mM) | effect on tumor growth, in words ([3]; agent alone) | further results |
| --- | --- | --- | --- | --- | --- | --- | --- | --- | --- | --- |
| OO [Hydrogen peroxide, reference compound] | – | – | – | – | – | – | – | – | – | CL (30 s) (porcine RBCs; Lu-BSA binding, pretreatment 44 mM, 37° C., 15 min, RBCs 19 days post collection): 558 ± 157 counts/30 s; activation at 44000 µM (porcine RBCs; Sus scrofa, 0.25 h, 44 mM, 15 min, 37° C. (hot air), 1.4×10^9 RBCs/ml, read-out: increase in bound Lu-BSA compared to cells maintained in PBS): 721%; activation at 11700 µM (porcine RBCs; Sus scrofa, 0.5 h, hydrogen peroxide 11.7 mM, 37° C., 30 min, vs 4° C. control, read-out: Percent difference from control): 254%; CL (30 s) (porcine RBCs; hydrogen peroxide 11.7 mM, 37° C., 30 min, RBCs less than 24 hours post collection): 1346 ± 386 counts/30 s |
| OC[C@H]1O[C@@H](n2cnc3c(O)ncnc32)[C@H](O)[C@@H]1O [Inosine] | small but significant increase | 34,972 ± 2,732 counts/30 sec | 115 | 0.597 ± 0.080 | 0.578 ± 0.045 | – | – | – | – | benefit of storing RBCs in reagent in respect to thermal fragility, in words (pig RBCs; 10 mM): no significant benefit |
| CC(O)C(=O)O (stereo not drawn) [Lactate] | insignificant increases | 30,930 ± 3,399 counts/30 sec | 102 | 0.667 ± 0.04 | 0.643 ± 0.02 | 0.362 | 0.440 ± 0.078 | 0.424 ± 0.014 | – | change in hemolysis, in words (pig RBCs; 10 mM, 43° C., RBCs 6 days post-collection): insignificant increases |
| CC(=O)C(=O)O [Pyruvate] | – | 60,732 ± 3,258 counts/30 sec | 200 | 0.646 ± 0.02 | 0.646 ± 0.07 | 0.363 | 0.427 ± 0.015 | 0.374 ± 0.055 | – | activity at 1430 µM [2]: 1.4%; CL (30 sec) ([1]; no cells): 420 counts/30 sec; CL (30 s) (porcine RBCs; 1.33 mM, 45° C., 30 min): 1203 ± 266 counts/30 s; CL (counts/30 s) (porcine RBCs; 1.33 mM, 30 min at 37° C., RBCs 72 hours post collection): 2348 ± 646 counts/30 s; activation at 1330 µM (porcine RBCs; Sus scrofa, 1.33 mM during exposure to 45° C., read-out: increase in Lu-BSA binding over the 45° C. exposure alone): 101%; activation at 1330 µM (porcine RBCs; Sus scrofa, 0.5 h, 1.33 mM, 45° C., 30 min, vs 4° C. control, read-out: Percent difference from control): 216%; activation at 1330 µM (porcine RBCs; Sus scrofa, 0.5 h, 1.33 mM, 30 min at 37° C., read-out: Percent difference from control): 166%; fold induction at 1330 µM (porcine RBCs; Sus scrofa, 0.5 h, 1.33 mM, 30 min at 37° C., read-out: increase of Lu-BSA binding): 2.7; spontaneous hemolysis reading (pig RBCs; pyruvate 1.33 mM, 37° C., RBCs 72 hours post collection): 0.362±0.016 |
| S=P(N1CC1)(N1CC1)N1CC1 [thio-TEPA, reference compound] | – | – | – | – | – | – | – | – | Neither myeloperoxidase nor thio-TEPA alone were effective | – |
| myeloperoxidase | – | – | – | – | – | – | – | – | Neither myeloperoxidase nor thio-TEPA alone were effective | effect on tumor growth, in words ([3]; myeloperoxidase injected in combination with thio-TEPA): significant reduction in tumor growth; biological half-life [4]: about 24 hours |
